In brackets after ≈: the same amount, converted by molar mass. Read-outs that look alike come from different tables or passages of the source.
Tests used:
[1] = test system: tobacco mosaic virus (TMV); assay: Anti-TMV curative activity (treatment mode), live friction inoculation on tobacco seedlings; type: in vivo; conditions: Tobacco mosaic virus, read-out: Anti-TMV activity, Curative effect (inhibition), 100 μg/mL, tobacco seedlings, checked on seventh day
[2] = test system: tobacco mosaic virus (TMV); assay: Anti-TMV inactivation activity (inactivation mode), compound mixed with TMV before inoculation of tobacco leaves; type: in vivo; conditions: Tobacco mosaic virus, read-out: Anti-TMV activity, Inactivation effect (inhibition)
[3] = test system: tobacco mosaic virus (TMV); assay: Anti-TMV protective activity (protection mode), live friction inoculation on tobacco seedlings; type: in vivo; conditions: Tobacco mosaic virus, read-out: Anti-TMV activity, Protection effect (inhibition)
[4] = test system: tobacco mosaic virus (TMV); assay: Anti-TMV inducing activity (induction mode), tobacco seedlings; type: in vivo; conditions: Tobacco mosaic virus, read-out: Anti-TMV activity, Induction effect (inhibition), 100 μg/mL, tobacco seedlings
[5] = test system: Alternaria solani; assay: Fungicidal activity, fungi growth rate method, AS; type: cell-based; conditions: Alternaria solani, 50 μg/mL
[6] = test system: Botrytis cinerea; assay: Fungicidal activity, fungi growth rate method, BC; type: cell-based; conditions: Botrytis cinerea, 50 μg/mL
[7] = test system: Cercospora arachidicola; assay: Fungicidal activity, fungi growth rate method, CA; type: cell-based; conditions: Mycosphaerella arachidis, 50 μg/mL
[8] = test system: wheat Gibberella zeae; assay: microbe, parasite or virus in culture; type: cell-based; conditions: Fusarium graminearum
[9] = test system: Phytophthora infestans (Mont) de Bary; assay: microbe, parasite or virus in culture; type: cell-based; conditions: Phytophthora infestans
[10] = test system: Physalospora piricola; assay: Fungicidal activity, fungi growth rate method, PP; type: cell-based; conditions: 50 μg/mL
[11] = test system: Pellicularia sasakii; assay: Fungicidal activity, fungi growth rate method, PS; type: cell-based; conditions: 50 μg/mL
[12] = test system: Rhizoctonia cerealis; assay: Fungicidal activity, fungi growth rate method, RC; type: cell-based; conditions: Ceratobasidium cereale, 50 μg/mL
[13] = test system: Sclerotinia sclerotiorum; assay: microbe, parasite or virus in culture; type: cell-based; conditions: Sclerotinia sclerotiorum; for inhibition at 50 µg/mL: 50 μg/mL
[14] = read-out: Fungicidal activity, inhibition, AS
[15] = read-out: Fungicidal activity, inhibition, BC
[16] = read-out: Fungicidal activity, inhibition, CA
[17] = read-out: Fungicidal activity, inhibition, GZ
[18] = read-out: Fungicidal activity, inhibition, PI
[19] = read-out: Fungicidal activity, inhibition, PP
[20] = read-out: Fungicidal activity, inhibition, PS
[21] = read-out: Fungicidal activity, inhibition, RC
[22] = read-out: Fungicidal activity, inhibition, SS
[23] = read-out: Fungicidal activity (inhibition) against AS: Alternaria solani
[24] = read-out: Fungicidal activity (inhibition) against BC: Botrytis cinerea
[25] = read-out: Fungicidal activity (inhibition) against CA: Cercospora arachidicola
[26] = read-out: Fungicidal activity (inhibition) against GZ: wheat Gibberella zeae
[27] = read-out: Fungicidal activity (inhibition) against PI: Phytophthora infestans (Mont) de Bary
[28] = read-out: Fungicidal activity (inhibition) against PP: Physalospora piricola
[29] = read-out: Fungicidal activity (inhibition) against PS: Pellicularia sasakii
[30] = read-out: Fungicidal activity (inhibition) against RC: Rhizoctonia cerealis
[31] = read-out: Fungicidal activity (inhibition) against SS: Sclerotinia sclerotiorum

SMILES	inhibition at 100 µg/mL [1] [%]	inhibition at 100 µg/mL [2] [%]	inhibition at 100 µg/mL [3] [%]	inhibition at 100 µg/mL [4] [%]	inhibition at 50 µg/mL [5, 14] [%]	inhibition at 50 µg/mL [6, 15] [%]	inhibition at 50 µg/mL [7, 16] [%]	inhibition at 50 µg/mL [8, 17] [%]	inhibition at 50 µg/mL [9, 18] [%]	inhibition at 50 µg/mL [10, 19] [%]	inhibition at 50 µg/mL [11, 20] [%]	inhibition at 50 µg/mL [12, 21] [%]	inhibition at 50 µg/mL [13, 22] [%]	melting point [°C]	inhibition at 50 µg/mL [5, 23] [%]	inhibition at 50 µg/mL [6, 24] [%]	inhibition at 50 µg/mL [7, 25] [%]	inhibition at 50 µg/mL [8, 26] [%]	inhibition at 50 µg/mL [9, 27] [%]	inhibition at 50 µg/mL [10, 28] [%]	other results
COC(=O)CCNC(=O)/C(=C/c1ccccc1)NC(=O)c1ccccc1 [Compound 35, (Z)-N-[1-[[1-(3-methyl propionate)amino]carbonyl]-2-phenylethenyl]benzamide]	0	16	3	23	25	21	3	7	13	3	0	7	67	139 to 141	–	–	–	–	–	–	–
COC(=O)CCCNC(=O)/C(=C/c1ccccc1)NC(=O)c1ccccc1 [Compound 36, (Z)-N-[1-[[1-(4-methylbutanoate)amino]carbonyl]-2-phenylethenyl]benzamide]	36	0	13	41	21	10	10	0	2	0	0	16	50	110 to 111	–	–	–	–	–	–	–
COC(=O)[C@H]1CCCN1C(=O)/C(=C/c1ccccc1)NC(=O)c1ccccc1 [Compound 37, (R,Z)-N-[1-[(2-methylpyrrolidinecarboxylate)]carbonyl-2-phenylethenyl]benzamide]	25	0	2	40	17	21	13	23	5	0	6	13	56	155 to 157	–	–	–	–	–	–	–
O=C(N/C(=C\c1ccccc1)C(=O)N1CCOCC1)c1ccccc1 [Compound 38, (Z)-N-[1-(4-morpholinylcarbonyl)-2-phenylethenyl]benzamide]	0	0	38	46	8	4	7	6	11	0	13	9	77	147 to 149	< 30	≤ 20	< 25	< 45	< 25	< 20	inhibition at 50 µg/mL [11, 29]: < 30%; inhibition at 50 µg/mL [12, 30]: < 20%; inhibition at 50 µg/mL [13, 31]: 77%
O=C(NC1CC1)/C(=C/c1ccccc1)NC(=O)c1ccccc1 [Compound 39, (Z)-N-[1-[(cyclopropylamino)carbonyl]-2-phenylethenyl]benzamide]	18	0	10	34	17	9	13	13	11	3	6	3	67	185 to 186	< 30	≤ 20	< 25	< 45	< 25	< 20	inhibition at 50 µg/mL [11, 29]: < 30%; inhibition at 50 µg/mL [12, 30]: < 20%; inhibition at 50 µg/mL [13, 31]: 67%
O=C(NC1CCCCC1)/C(=C/c1ccccc1)NC(=O)c1ccccc1 [Compound 40, (Z)-N-[1-[(cyclohexylamino)carbonyl]-2-phenylethenyl]benzamide]	0	0	0	45	13	10	10	11	11	0	6	10	56	204 to 206	< 30	≤ 20	< 25	< 45	< 25	< 20	inhibition at 50 µg/mL [11, 29]: < 30%; inhibition at 50 µg/mL [12, 30]: < 20%; inhibition at 50 µg/mL [13, 31]: 56%
CNC(=O)/C(=C/c1csc(C2CCN(C(=O)OC(C)(C)C)CC2)n1)NC(=O)c1ccccc1 [Compound 41, (Z)-N-[1-[(methylamino)carbonyl]-2-[4-[2-[4-(1-Boc-piperidine)]thiazol]]ethenyl]benzamide]	0	0	30	2	54	52	35	34	39	37	33	33	96	107 to 109	–	52	–	–	–	–	EC90 ([13]; read-out: EC90 against S. sclerotiorum in vitro): 375 µg/mL (≈ 796 µM)
